Assay results published in US20220128564A1, “USE OF A STIMULATING AGENT TO ASSAY IMMUNE CELL POTENCY” (RESEARCH INSTITUTE AT NATIONWIDE CHILDREN'S HOSPITAL, priority 2019, published 2022).

Columns and labels:
[1] = tested on: fresh peripheral blood NK cells; assay: PHA-induced cytokine assay, fresh peripheral blood NK cells; format: cell-based; settings: fresh NK cells (N=10), 10^6 cells, 1 hour stimulation with PHA, supernatant
Source text: (§1) Use of tumor cells to test effector function of therapeutic immune cells has been a standard practice. These target cells add biological variabilities to the outcomes of assay. Also, this assay set up is more tedious and complicated adding up variabilities due to target condition, plate set up, person-to-person difference in techniques. The therapeutic response of NK cells via comparison of a PHA cytokine assay against a widely use tumor cell (K562) mediated cytokine assay. The levels of cytokine indicate potency of the response from the NK cells.
(§2) After establishing an optimal number of cells (10^6) for the assay, multiple donors of fresh peripheral blood NK cells (N=10) and expanded NK cells (N=18) were stimulated with PHA to produce cytokines, and after 1 hour cytokine in the supernatant was assessed. Expression of most cytokines are similar between the two types of NK cells, but several cytokines and chemokines related to NK cell function were highly differentially expressed in response to stimulation (FIG. 6). Next the expression of 6 cytokines in fresh and expanded NK cells was measured after 1 hour stimulation with PHA. Pentraxin-3 (mean 1,062 vs 7), IL-8 (mean 821 vs 11), and Chitinase 3-like 1 (mean 620 vs 7) were highly overexpressed in fresh NK cells compared to expanded NK cells, and IFN-γ (mean 15 vs 105), IL-2 (mean 3 vs 141), and CD30 (mean9 vs. 156) were highly overexpressed in expanded NK cells compared to fresh NK cells (FIG. 7). On the basis of overexpression alone, a cut-off of expressing 10 pg/mL of both IFN-γ and IL-2 has 94% specificity […] and 89% sensitivity (16 of 18) in differentiating expanded NK cells from fresh peripheral blood NK cells (FIG. 8).

[2] = tested on: expanded NK cells; assay: PHA-induced cytokine assay, expanded NK cells; format: cell-based; settings: expanded NK cells (N=18), 10^6 cells, 1 hour stimulation with PHA, supernatant
Source text: as §1, §2

## phytohemagglutinin [PHA]
[1]
  CD30 expression (mean): 9
  Chitinase 3-like 1 expression (mean): 620
  IFN-γ expression (mean): 15
  IL-2 expression (mean): 3
  IL-8 expression (mean): 821
  Pentraxin-3 expression (mean): 1,062
[2]
  CD30 expression (mean): 156
  Chitinase 3-like 1 expression (mean): 7
  IFN-γ expression (mean): 105
  IL-2 expression (mean): 141
  IL-8 expression (mean): 11
  Pentraxin-3 expression (mean): 7
